Experimental data from patent publication US20050245399A1, “Pyrazole derivatives as herbicidal compositions containing them” (ISHIHARA SANGYO KAISHA, LTD., priority 2004, published 2005).

Experiments:
Format in all cases: in vivo
[1] = test system: barnyardgrass (Echinochloa crus-galli L.): ECHCG; assay: Test Example 1 pre-emergence herbicidal activity, ECHCG; details: visually observed 20th to 23rd day after application
How it was run: (§1)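 Pots of upland soil were sown, and one day later WP or EC formulations at set active-ingredient rates were sprayed pre-emergence in 500 L/ha water. Growth control scored visually 20–23 days after application, 0 (as untreated) to 100 (complete kill).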

[2] = test system: crabgrass (Digitaria sanguinalis L.): DIGSA; assay: Test Example 1 pre-emergence herbicidal activity, DIGSA; details: visually observed 20th to 23rd day after application
How it was run: as §1

[3] = test system: green foxtail (Setaria viridis L.): SETVI; assay: Test Example 1 pre-emergence herbicidal activity, SETVI; details: visually observed 20th to 23rd day after application
How it was run: as §1

[4] = test system: redroot pigweed (Amaranthus retroflexus L.): AMARE; assay: Test Example 1 pre-emergence herbicidal activity, AMARE; details: visually observed 20th to 23rd day after application
How it was run: as §1

[5] = test system: prickly sida (Sida spinosa L.): SEDSP; assay: Test Example 1 pre-emergence herbicidal activity, SIDSP; details: visually observed 20th to 23rd day after application
How it was run: as §1

[6] = test system: velvetleaf (Abutilon theophrasti): ABUTH; assay: Test Example 1 pre-emergence herbicidal activity, ABUTH; details: visually observed 20th to 23rd day after application
How it was run: as §1

[7] = test system: rice (Oryza sativa L.): ORYSA; assay: Test Example 1 pre-emergence herbicidal activity, ORYSA; details: visually observed 20th to 23rd day after application
How it was run: as §1

[8] = test system: wheat (Triticum aestivum L.): TRZAX; assay: Test Example 1 pre-emergence herbicidal activity, TRZAX; details: visually observed 20th to 23rd day after application
How it was run: as §1

[9] = test system: corn (Zea mays L.): ZEAMX; assay: Test Example 1 pre-emergence herbicidal activity, ZEAMX; details: visually observed 20th to 23rd day after application
How it was run: as §1

[10] = test system: soybean (Glycine max Merr.): GLXMA; assay: Test Example 1 pre-emergence herbicidal activity, GLXMA; details: visually observed 20th to 23rd day after application
How it was run: as §1

[11] = test system: barnyardgrass (Echinochloa crus-galli L.), ECHCG; assay: Test Example 2 post-emergence (foliage treatment) herbicidal activity, ECHCG; details: 63 g a.i./ha
How it was run: (§2)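 Plants grown in upland soil pots were sprayed on foliage at set leaf stages (ECHCG 1.1-2.1, DIGSA 1.0-2.0, AMARE 0.1-1.5, ORYSA 1.0-2). Formulated compound was applied at predetermined active-ingredient amounts in 500 L/ha water with 0.1% (v/v) spreader. Growth control (0–100%) was visually scored 20–23 days later.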

[12] = test system: crabgrass (Digitaria sanguinalis L.), DIGSA; assay: Test Example 2 post-emergence (foliage treatment) herbicidal activity, DIGSA; details: 63 g a.i./ha
How it was run: as §2

[13] = test system: green foxtail (Setaria viridis L.), SETVI; assay: Test Example 2 post-emergence (foliage treatment) herbicidal activity, SETVI; details: 63 g a.i./ha
How it was run: (§3)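 A small sprayer delivered the diluted WP or EC formulation (500 L/ha water, 0.1% v/v spreader) over emerged seedlings in upland soil pots. Damage relative to untreated plants was graded visually from 0 to 100% three weeks or so later (days 20-23).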

[14] = test system: redroot pigweed (Amaranthus retroflexus L.), AMARE; assay: Test Example 2 post-emergence (foliage treatment) herbicidal activity, AMARE; details: 63 g a.i./ha
How it was run: as §2

[15] = test system: prickly sida (Sida spinosa L.), SIDSP; assay: Test Example 2 post-emergence (foliage treatment) herbicidal activity, SIDSP; details: 63 g a.i./ha
How it was run: as §3

[16] = test system: velvetleaf (Abutilon theophrasti), ABUTH; assay: Test Example 2 post-emergence (foliage treatment) herbicidal activity, ABUTH; details: 63 g a.i./ha
How it was run: as §3

[17] = test system: rice (Oryza sativa L.), ORYSA; assay: Test Example 2 post-emergence (foliage treatment) herbicidal activity, ORYSA; details: 63 g a.i./ha
How it was run: as §2

[18] = test system: wheat (Triticum aestivum L.), TRZAX; assay: Test Example 2 post-emergence (foliage treatment) herbicidal activity, TRZAX; details: 63 g a.i./ha
How it was run: as §3

[19] = test system: corn (Zea mays L.), ZEAMX; assay: Test Example 2 post-emergence (foliage treatment) herbicidal activity, ZEAMX; details: 63 g a.i./ha
How it was run: as §3

[20] = test system: soybean (Glycine max Merr.), GLXMA; assay: Test Example 2 post-emergence (foliage treatment) herbicidal activity, GLXMA; details: 63 g a.i./ha
How it was run: as §3

Structure (SMILES) | Pre-emergence Herbicidal Activity ECHCG (growth controlling degree) ([1]; Rate 63 g a.i./ha) | Pre-emergence Herbicidal Activity DIGSP (growth controlling degree) ([2]; Rate 63 g a.i./ha) | Pre-emergence Herbicidal Activity SETVI (growth controlling degree) ([3]; Rate 63 g a.i./ha) | Pre-emergence Herbicidal Activity AMARE (growth controlling degree) ([4]; Rate 63 g a.i./ha) | Pre-emergence Herbicidal Activity SIDSP (growth controlling degree) ([5]; Rate 63 g a.i./ha) | Pre-emergence Herbicidal Activity ABUTH (growth controlling degree) ([6]; Rate 63 g a.i./ha) | Pre-emergence Herbicidal Activity ORYSA (growth controlling degree) ([7]; Rate 63 g a.i./ha) | Pre-emergence Herbicidal Activity TRZAX (growth controlling degree) ([8]; Rate 63 g a.i./ha) | Pre-emergence Herbicidal Activity ZEAMX (growth controlling degree) ([9]; Rate 63 g a.i./ha) | Pre-emergence Herbicidal Activity GLXMA (growth controlling degree) ([10]; Rate 63 g a.i./ha) | growth controlling degree, ECHCO [11] | growth controlling degree, DIGSP [12] | growth controlling degree, SETVI [13] | growth controlling degree, AMARE [14] | growth controlling degree, SIDSP [15] | growth controlling degree, ABUTH [16] | growth controlling degree, ORYSA [17] | growth controlling degree, TRZAX [18] | growth controlling degree, ZEAMX [19] | growth controlling degree, GLXMA [20] | other results
COc1c(Cl)cc(F)c(-c2nn(C)c(OC(F)F)c2Cl)c1NC(=O)C=Cc1ccccc1C [Compound 1-253] | 20% | 70% | 50% | 100% | 30% | 40% | 10% | 0% | 0% | 0% | 80% | 30% | 100% | 100% | 100% | 100% | 70% | 50% | 40% | 80% | 
COc1c(Cl)cc(F)c(-c2nn(C)c(OC(F)F)c2Cl)c1NC(=O)C=Cc1ccc(C)cc1 [Compound 1-255] | 0% | 10% | 10% | 70% | 0% | 0% | 0% | 0% | 0% | 0% | 50% | 30% | 50% | 100% | 100% | 100% | 40% | 10% | 20% | 50% | 
C#CCOC(=O)Nc1c(OC)c(Cl)cc(F)c1-c1nn(C)c(OC(F)F)c1Cl [Compound 1-74] | 90% | 100% | 100% | 100% | 100% | 100% | 50% | 30% | 10% | 0% | 98% | 70% | 100% | 100% | 100% | 100% | 95% | 50% | 30% | 60% | 
CCOC(=O)C(C)N(C=O)c1c(OC)c(Cl)cc(F)c1-c1nn(C)c(OC(F)F)c1Cl (stereo not drawn) [Compound 1-42] |  |  |  |  |  |  |  |  |  |  | 30% | 30% | 50% | 100% | 70% | 95% | 20% | 20% | 0% | 10% | Pre-emergence Herbicidal Activity ECHCG (growth controlling degree) ([1]; Rate 125 g a.i./ha): 0%; Pre-emergence Herbicidal Activity DIGSP (growth controlling degree) ([2]; Rate 125 g a.i./ha): 0%; Pre-emergence Herbicidal Activity SETVI (growth controlling degree) ([3]; Rate 125 g a.i./ha): 0%; Pre-emergence Herbicidal Activity AMARE (growth controlling degree) ([4]; Rate 125 g a.i./ha): 0%; Pre-emergence Herbicidal Activity SIDSP (growth controlling degree) ([5]; Rate 125 g a.i./ha): 0%; Pre-emergence Herbicidal Activity ABUTH (growth controlling degree) ([6]; Rate 125 g a.i./ha): 0%; Pre-emergence Herbicidal Activity ORYSA (growth controlling degree) ([7]; Rate 125 g a.i./ha): 0%; Pre-emergence Herbicidal Activity TRZAX (growth controlling degree) ([8]; Rate 125 g a.i./ha): 0%; Pre-emergence Herbicidal Activity ZEAMX (growth controlling degree) ([9]; Rate 125 g a.i./ha): 0%; Pre-emergence Herbicidal Activity GLXMA (growth controlling degree) ([10]; Rate 125 g a.i./ha): 0%
COc1c(Cl)cc(F)c(-c2nn(C)c(OC(F)F)c2Cl)c1NC(=O)OC(C)C [Compound 1-75] | 70% | 100% | 100% | 100% | 60% | 100% | 30% | 30% | 10% | 0% | 100% | 50% | 100% | 100% | 100% | 100% | 80% | 50% | 50% | 60% | 
COc1c(Cl)cc(F)c(-c2nn(C)c(OC(F)F)c2Cl)c1NC(=O)C(C)=Cc1ccccc1 [Compound 1-251] | 0% | 20% | 20% | 100% | 20% | 30% | 10% | 0% | 0% | 0% | 60% | 70% | 60% | 100% | 95% | 95% | 10% | 20% | 10% | 40% | 
